According to PubChem BioAssay (NCI):
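Assay format: 96-well plates, 48-hour exposure. Abbreviation: GI50, concentration required for 50% inhibition of growth. Definition used: TGI = concentration required for complete inhibition of growth.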

The molecules below were run on M14 melanoma (assay: DTP human tumour cell line panel, 48 h).
`CN1CCN(CCCOc2ccc3nc(Nc4ccc(Cl)c(C(F)(F)F)c4)ccc3c2)CC1` was tested, and the GI50 was 12.7 µM and the TGI was 26.1 µM.
`CC(C)n1nc(-c2cc3cc(O)ccc3[nH]2)c2c(N)ncnc21` showed a GI50 of 0.151 µM and a TGI of 1.8 µM.
In the case of `CCCCC(O)(c1ccc(Cl)cc1)C(CN1CCOCC1)c1ccc(Cl)cc1` (configuration not stated), the GI50 is reported as 13.8 µM and the TGI is reported as 33.4 µM.
Molecule `OC[C@H]1CCCC1O` (some centres not stated) has a TGI greater than 100 µM.
`O=C(N/N=C/c1ccc(Cl)cc1)c1ccc(C(F)(F)F)nc1Nc1cccc(C(F)(F)F)c1` gave a GI50 of 2.54 µM and a TGI of 10 µM.
With `COc1cc2ncnc(Nc3ccc(C)c(O)c3)c2cc1OC` the GI50 was 18.8 µM and the TGI was greater than 25 µM.
Molecule `O=C1OC(C(O)CO)C(=O)C1=O` (configuration not stated) has a GI50 of 6700 µM and a TGI greater than 10000 µM.
`COC(=O)C1=CNC=C(C(=O)OC)C1C1=CC(=O)C(C)=CC1=O` gave a GI50 of 15.2 µM and a TGI of 29.1 µM.
`C=C1C(=O)O[C@H]2[C@H]1CC/C(COC(=O)C(=O)c1cn(Cc3ccccc3)c3ccccc13)=C\CC[C@@]1(C)O[C@@H]21` showed a GI50 of 1.78 µM and a TGI of 4.13 µM.
With `Cc1cc(S(=O)(=O)Nc2nnc(-c3ccccc3)c(-c3ccccc3)n2)c(SCC(N)=O)cc1Cl` the GI50 was 56.5 µM and the TGI was greater than 100 µM.
For `COc1ccc(/C=C/c2ccnc3ccccc23)c(OC)c1`, the TGI was greater than 10 µM.
Molecule `COC(C(O)CO)C(O)C(O)C(=O)NNc1ccccc1` (configuration not stated) has a TGI greater than 100 µM.
Molecule `NS(=O)(=O)c1ccc(NC2(C(=O)O)CCCC2)cc1` has a TGI greater than 100 µM.
`O=C(O)C1OC(n2cc(F)c(=O)[nH]c2=O)CC1O` (configuration not stated) gave a TGI greater than 100 µM.
Molecule `N=C1C(c2nc3ccccc3s2)=C(O)CN1c1cc(C(F)(F)F)ccc1Cl` has a GI50 of 3.21 µM and a TGI of 11.1 µM.
`CC(=O)CSCc1ccccn1` gave a TGI greater than 100 µM.
`COc1ccccc1CNCCCN1C(=O)c2ccc3c4c(ccc(c24)C1=O)C(=O)N(CCCOCCCCOCCCN)C3=O` gave a GI50 of 1.42 µM and a TGI of 4.82 µM.
For `CCOC(=O)[C@@H](N)CCC(=O)N[C@@H](CSCc1ccccc1)C(=O)N[C@@H](C(=O)OCC)c1ccccc1`, the GI50 was 19 µM and the TGI was 37.2 µM.
In the case of `COc1ccc(Nc2c3ccccc3nc3occc23)cc1`, the GI50 is reported as 2.14 µM and the TGI is reported as greater than 43.1 µM.
In the case of `CC(=O)/C(C)=N/NC(=O)c1ccccc1O`, the GI50 is reported as greater than 100 µM and the TGI is reported as greater than 100 µM.
`CCCCCCCC/C=C/CCCCCCCC(=O)OC[C@H]1O[C@@H](n2ccc(N)nc2=O)C(F)(F)[C@@H]1O` was tested, and the GI50 was less than 0.0115 µM and the TGI was 0.0273 µM.
For `NS(=O)(=O)c1ccc(N=Nc2c(O)[nH]c3ccc(-c4cnco4)cc23)cc1`, the GI50 was greater than 25 µM and the TGI was greater than 25 µM.
`N#C/C(=C1C=C(Br)/C(=N\O)C=C\1Cl)c1cccc2ccccc12` showed a TGI of 11.7 µM.
`COc1cc2nc3cc([N+](=O)[O-])ccc3c(NCCCNCCO)c2cc1OC` was tested, and the GI50 was 0.205 µM and the TGI was 0.437 µM.
For `COC(=O)[C@@H](C)CNS(=O)(=O)N(c1cc(C(F)(F)F)cc(C(F)(F)F)c1)C1CCN(Cc2ccc(F)cc2)CC1`, the GI50 was 3.75 µM and the TGI was 15 µM.
Work on `C=C1C(=O)O[C@@H]2/C=C(\C)CC/C=C(/COC(C)=O)C[C@@H](OC(C)=O)[C@@H]12` yielded a TGI of 27.1 µM.
`COC(=O)[C@H](C)NC(=O)NC(=O)NC(=O)CI` showed a GI50 of 11.8 µM and a TGI of 27.5 µM.
`COc1cc2c(c(OC)c1OC)-c1ccc(OC)c(=O)cc1[C@@H](NC(=O)c1ccccc1)CC2` was tested, and the TGI was 8.46 µM.
`CN1c2ccc(Cl)cc2C(=O)NC1c1ccc([N+](=O)[O-])s1` (configuration not stated) was tested, and the TGI was 32.5 µM.

The molecules below were run on SNB-75 CNS (assay: DTP human tumour cell line panel, 48 h).
With `CN1CCN(CCCOc2ccc3nc(Nc4ccc(Cl)c(C(F)(F)F)c4)ccc3c2)CC1` the GI50 was 7.09 µM and the TGI was 20.5 µM.
Work on `CC(C)n1nc(-c2cc3cc(O)ccc3[nH]2)c2c(N)ncnc21` yielded a GI50 of 0.0377 µM and a TGI of 0.502 µM.
In the case of `CCCCC(O)(c1ccc(Cl)cc1)C(CN1CCOCC1)c1ccc(Cl)cc1` (configuration not stated), the GI50 is reported as 16.8 µM and the TGI is reported as 44.7 µM.
Molecule `OC[C@H]1CCCC1O` (some centres not stated) has a TGI greater than 100 µM.
`O=C(N/N=C/c1ccc(Cl)cc1)c1ccc(C(F)(F)F)nc1Nc1cccc(C(F)(F)F)c1` showed a GI50 of 2.72 µM and a TGI of 13.4 µM.
`COc1cc2ncnc(Nc3ccc(C)c(O)c3)c2cc1OC` gave a GI50 of 4.9 µM and a TGI greater than 24 µM.
`O=C1OC(C(O)CO)C(=O)C1=O` (configuration not stated) showed a GI50 of 6160 µM and a TGI greater than 10000 µM.
`COC(=O)C1=CNC=C(C(=O)OC)C1C1=CC(=O)C(C)=CC1=O` gave a GI50 of 16 µM and a TGI of 42 µM.
`C=C1C(=O)O[C@H]2[C@H]1CC/C(COC(=O)C(=O)c1cn(Cc3ccccc3)c3ccccc13)=C\CC[C@@]1(C)O[C@@H]21` gave a GI50 of 1.83 µM and a TGI of 8.4 µM.
In the case of `Cc1cc(S(=O)(=O)Nc2nnc(-c3ccccc3)c(-c3ccccc3)n2)c(SCC(N)=O)cc1Cl`, the GI50 is reported as greater than 100 µM and the TGI is reported as greater than 100 µM.
`COc1ccc(/C=C/c2ccnc3ccccc23)c(OC)c1` showed a TGI greater than 10 µM.
In the case of `COC(C(O)CO)C(O)C(O)C(=O)NNc1ccccc1` (configuration not stated), the TGI is reported as greater than 100 µM.
`NS(=O)(=O)c1ccc(NC2(C(=O)O)CCCC2)cc1` was tested, and the TGI was greater than 100 µM.
`O=C(O)C1OC(n2cc(F)c(=O)[nH]c2=O)CC1O` (configuration not stated) was tested, and the TGI was greater than 100 µM.
`N=C1C(c2nc3ccccc3s2)=C(O)CN1c1cc(C(F)(F)F)ccc1Cl` showed a GI50 of 24.1 µM and a TGI greater than 100 µM.
`CC(=O)CSCc1ccccn1` showed a TGI of 71.9 µM.
Molecule `COc1ccccc1CNCCCN1C(=O)c2ccc3c4c(ccc(c24)C1=O)C(=O)N(CCCOCCCCOCCCN)C3=O` has a GI50 of 1.79 µM and a TGI of 3.6 µM.
`CCOC(=O)[C@@H](N)CCC(=O)N[C@@H](CSCc1ccccc1)C(=O)N[C@@H](C(=O)OCC)c1ccccc1` showed a GI50 of 13 µM and a TGI of 26.4 µM.
For `COc1ccc(Nc2c3ccccc3nc3occc23)cc1`, the GI50 was 9.4 µM and the TGI was greater than 100 µM.
`CC(=O)/C(C)=N/NC(=O)c1ccccc1O` showed a GI50 greater than 100 µM and a TGI greater than 100 µM.
`CCCCCCCC/C=C/CCCCCCCC(=O)OC[C@H]1O[C@@H](n2ccc(N)nc2=O)C(F)(F)[C@@H]1O` gave a GI50 of 0.36 µM and a TGI greater than 66.1 µM.
Molecule `NS(=O)(=O)c1ccc(N=Nc2c(O)[nH]c3ccc(-c4cnco4)cc23)cc1` has a GI50 of 10.1 µM and a TGI greater than 25 µM.
`N#C/C(=C1C=C(Br)/C(=N\O)C=C\1Cl)c1cccc2ccccc12` was tested, and the TGI was 0.79 µM.
`COc1cc2nc3cc([N+](=O)[O-])ccc3c(NCCCNCCO)c2cc1OC` was tested, and the GI50 was 0.128 µM and the TGI was 0.26 µM.
Work on `COC(=O)[C@@H](C)CNS(=O)(=O)N(c1cc(C(F)(F)F)cc(C(F)(F)F)c1)C1CCN(Cc2ccc(F)cc2)CC1` yielded a GI50 of 6.24 µM and a TGI of 20.4 µM.
For `C=C1C(=O)O[C@@H]2/C=C(\C)CC/C=C(/COC(C)=O)C[C@@H](OC(C)=O)[C@@H]12`, the TGI was greater than 100 µM.
Molecule `COC(=O)[C@H](C)NC(=O)NC(=O)NC(=O)CI` has a GI50 of 15.9 µM and a TGI of 30.3 µM.
In the case of `COc1cc2c(c(OC)c1OC)-c1ccc(OC)c(=O)cc1[C@@H](NC(=O)c1ccccc1)CC2`, the TGI is reported as 33.8 µM.
With `CN1c2ccc(Cl)cc2C(=O)NC1c1ccc([N+](=O)[O-])s1` (configuration not stated) the TGI was 35.4 µM.

The molecules below were run on K-562 leukemia (assay: DTP human tumour cell line panel, 48 h).
`CN1CCN(CCCOc2ccc3nc(Nc4ccc(Cl)c(C(F)(F)F)c4)ccc3c2)CC1` showed a GI50 of 2.4 µM and a TGI of 5.78 µM.
In the case of `CC(C)n1nc(-c2cc3cc(O)ccc3[nH]2)c2c(N)ncnc21`, the GI50 is reported as 0.579 µM and the TGI is reported as 36.1 µM.
With `CCCCC(O)(c1ccc(Cl)cc1)C(CN1CCOCC1)c1ccc(Cl)cc1` (configuration not stated) the GI50 was 12.2 µM and the TGI was 41.1 µM.
`OC[C@H]1CCCC1O` (some centres not stated) gave a TGI greater than 100 µM.
`O=C(N/N=C/c1ccc(Cl)cc1)c1ccc(C(F)(F)F)nc1Nc1cccc(C(F)(F)F)c1` gave a GI50 of 3.15 µM and a TGI greater than 35.9 µM.
In the case of `COc1cc2ncnc(Nc3ccc(C)c(O)c3)c2cc1OC`, the GI50 is reported as 7.19 µM and the TGI is reported as greater than 25 µM.
Work on `O=C1OC(C(O)CO)C(=O)C1=O` (configuration not stated) yielded a GI50 of 2860 µM and a TGI of 9080 µM.
`COC(=O)C1=CNC=C(C(=O)OC)C1C1=CC(=O)C(C)=CC1=O` showed a GI50 of 1.36 µM and a TGI of 3.84 µM.
With `C=C1C(=O)O[C@H]2[C@H]1CC/C(COC(=O)C(=O)c1cn(Cc3ccccc3)c3ccccc13)=C\CC[C@@]1(C)O[C@@H]21` the GI50 was 2.66 µM and the TGI was 10.4 µM.
`Cc1cc(S(=O)(=O)Nc2nnc(-c3ccccc3)c(-c3ccccc3)n2)c(SCC(N)=O)cc1Cl` was tested, and the GI50 was 36.3 µM and the TGI was greater than 100 µM.
For `COc1ccc(/C=C/c2ccnc3ccccc23)c(OC)c1`, the TGI was greater than 10 µM.
In the case of `COC(C(O)CO)C(O)C(O)C(=O)NNc1ccccc1` (configuration not stated), the TGI is reported as greater than 100 µM.
